Assay [1] deals with Enterococcus faecium. Kind of assay: Antimicrobial activity against vancomycin-dependent VanB-type Enterococcus faecium BM4660. Type of assay: functional.
Assay [2] addresses T1, D,D-dipeptidase (Enterococcus faecium) (UniProt Q9EYV8).
T1 sequence (whole entry): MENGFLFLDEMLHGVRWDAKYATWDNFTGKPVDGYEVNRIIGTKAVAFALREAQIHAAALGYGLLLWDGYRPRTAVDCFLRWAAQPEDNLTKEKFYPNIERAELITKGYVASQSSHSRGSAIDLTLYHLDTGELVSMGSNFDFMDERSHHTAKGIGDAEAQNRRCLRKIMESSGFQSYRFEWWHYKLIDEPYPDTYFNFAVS
Kind of assay: Activity of D,D-dipeptidase in vancomycin-resistant and teicoplanin-sensitive VanB-type Enterococcus faecium BM4659 assessed as enzyme mediated D-Alanine release per mg protein at 8 ug/ml.

Assay [3] deals with T2, D,D-carboxypeptidase (Enterococcus faecium) (UniProt Q7BI95).
T2 sequence (whole entry): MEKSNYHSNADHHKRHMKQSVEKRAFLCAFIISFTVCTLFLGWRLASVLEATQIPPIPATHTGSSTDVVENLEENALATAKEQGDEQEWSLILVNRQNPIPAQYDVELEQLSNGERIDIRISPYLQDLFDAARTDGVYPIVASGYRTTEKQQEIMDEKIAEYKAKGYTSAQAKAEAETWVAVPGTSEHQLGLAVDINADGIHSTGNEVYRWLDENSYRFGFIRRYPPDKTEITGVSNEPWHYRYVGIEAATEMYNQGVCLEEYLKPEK
Kind of assay: Activity of D,D-carboxypeptidase in vancomycin-dependent VanB-type Enterococcus faecium BM4660 cytoplasmic fraction assessed as enzyme mediated D-Alanine release per mg protein at 8 ug/ml.

Assay [4] has as its system Enterococcus faecium. Description: Antimicrobial activity against vancomycin-revertant and teicoplanin-sensitive VanB-type Enterococcus faecium BM4661. The assay is classed as functional.
In assay [5] the test system is Enterococcus faecium. Description: Antimicrobial activity against vancomycin-resistant and teicoplanin-sensitive VanB-type Enterococcus faecium BM4659. Type of assay: functional.
The target in assay [6] is T2, D,D-carboxypeptidase (Enterococcus faecium). Kind of assay: Activity of D,D-carboxypeptidase in vancomycin-resistant and teicoplanin-sensitive VanB-type Enterococcus faecium BM4659 membrane fraction assessed as enzyme mediated D-Alanine release per mg protein at 8 ug/ml.
Assay [7] concerns the target T1, D,D-dipeptidase (Enterococcus faecium). Kind of assay: Activity of D,D-dipeptidase in vancomycin-revertant and teicoplanin-sensitive VanB-type Enterococcus faecium BM4661 assessed as enzyme mediated D-Alanine release per mg protein at 8 ug/ml.
Assay [8] deals with T2, D,D-carboxypeptidase (Enterococcus faecium). Kind of assay: Activity of D,D-carboxypeptidase in vancomycin-revertant and teicoplanin-sensitive VanB-type Enterococcus faecium BM4661 membrane fraction assessed as enzyme mediated D-Alanine release per mg protein at 8 ug/ml.
Assay [9] has the same target. Description: Activity of D,D-carboxypeptidase in vancomycin-revertant and teicoplanin-sensitive VanB-type Enterococcus faecium BM4661 cytoplasmic fraction assessed as enzyme mediated D-Alanine release per mg protein at 8 ug/ml.
For assay [10] the target is unchanged. Description: Activity of D,D-carboxypeptidase in vancomycin-dependent VanB-type Enterococcus faecium BM4660 membrane fraction assessed as enzyme mediated D-Alanine release per mg protein at 8 ug/ml.
Assay [11] shares this target. Kind of assay: Activity of D,D-carboxypeptidase in vancomycin-resistant and teicoplanin-sensitive VanB-type Enterococcus faecium BM4659 cytoplasmic fraction assessed as enzyme mediated D-Alanine release per mg protein at 8 ug/ml.
The target in assay [12] is T1, D,D-dipeptidase (Enterococcus faecium). Kind of assay: Activity of D,D-dipeptidase in vancomycin-dependent VanB-type Enterococcus faecium BM4660 assessed as enzyme mediated D-Alanine release per mg protein at 8 ug/ml.

≈ marks a conversion by molar mass, not a printed value.

As a reminder, the MIC is the smallest concentration in the dilution series that meets the test's criterion for growth inhibition. A lower MIC goes with a more susceptible organism.

Consider `CN[C@H](CC(C)C)C(=O)N[C@H]1C(=O)N[C@@H](CC(N)=O)C(=O)N[C@H]2C(=O)N[C@H]3C(=O)N[C@H](C(=O)N[C@H](C(=O)O)c4cc(O)cc(O)c4-c4cc3ccc4O)[C@H](O)c3ccc(c(Cl)c3)Oc3cc2cc(c3O[C@@H]2O[C@H](CO)[C@@H](O)[C@H](O)[C@H]2O[C@H]2C[C@](C)(N)[C@H](O)[C@H](C)O2)Oc2ccc(cc2Cl)[C@H]1O` [VANCOMYCIN], for which the MIC stood at 256 µg/mL (≈ 177 µM) in [1], 256 µg/mL (≈ 177 µM) in assay [4] and 64 µg/mL (≈ 44.2 µM) in assay [5]. Moreover, the Activity in [2] came out at 255 nmol/min/mg; in [3], 5.3 nmol/min/mg; in assay [6], 115 nmol/min/mg; in assay [7] it was 128 nmol/min/mg; in assay [8], 27 nmol/min/mg; in assay [9], 4.3 nmol/min/mg. The Activity in assay [10] stood at 30 nmol/min/mg; in [11], 13 nmol/min/mg; in [12], 99 nmol/min/mg.
